Assay results: patent publication US10227327B2, “Inhibitors of metallo-beta-lactamase (MBL) comprising a zinc chelating moiety” (Universitetet I Oslo, priority 2013, dated 2019)

What was measured:
Experiment in all cases: Microbroth dilution, meropenem MIC with/without compound
Type in all cases: cell-based
[1] = tested on: P. aeruginosa 50692172 (NDM-1); conditions: compound at 125 μM; 50692172 P. aeruginosa NDM-1
Description: (§1) General Protocol for Microbroth Dilution Method for Evaluating Antibacterial Activity of Compounds or Synergistic Effect of Compound-Antibiotic Combination
(§2) • Plate bacterial strain(s) on appropriate media: • Gram-negative bacteria with ESBLs or carbapenemases: green agar plates with 100 mg/L ampicillin • Gram-negative bacteria without β-lactamases: green agar plates • Gram-positive bacteria (Staphylococci and Enterococci): blood agar plates • Incubate o.n. at 37° C. Day 2: Prepare the Bacterial Inoculum: • Prepare a 0.5 McFarland suspension of bacteria in 0.85% NaCl. (Should be used within 15 min of preparation). • Dilute the 0.5 McFarland suspension 1:100 into MH broth. Check the inoculum by diluting the prepared bacterial suspension 1:100 (10 μl bacterial suspension+990 μl 0.85% NaCl). Plate 10 μl of the dilution on MH agar plates (×2). Incubate o.n. at 37° C., count the colonies and calculate the final CFU/ml inoculum in the plate by multiplying the average number of colonies with 10000 and divide by 2. The final inoculum should be between 3-7×10^5 CFU/ml. • Add 50 μl of the prepared bacterial suspension to each well in the microtiter plate except negative growth control. Preparation of Compounds/Antibiotics • Calculate the desired concentration-range and volume of the compounds/antibiotics in the assay. […] Dilute the stock solution in MH broth. Make subsequent 2-fold dilutions in MH broth of the desired concentrations if a concentration range is to be tested (remember the extra dilution factor in the assay plate). Always include extra volume for pipetting. Take into consideration stock solutions that are made in buffers that have an effect on bacterial growth (e.g. DMSO). Assay: • Determining the MIC of compounds/antibiotics alone: • Add 25 μl of each concentration of compound/antibiotic to row 2-11 (highest concentration in row 2) • Add 25 μl MH broth to row 2-11 • Add 50 μl MH broth to row 12 (positive control) • Add 100 μl MH broth to row 1 • Add 50 μl bacterial suspension to row 2-12. • Determining the MIC of antibiotics+compounds: • Add 25 μl of each concentration of antibiotic to row 2-11 (highest concentration in row 2) • Add 25 μl of compound to row 2-11 • Add 50 μl MH broth to row 12 (positive control) • Add 100 μl MH broth to row 1 • Add 50 μl bacterial suspension to row 2-12. • Incubate the plate for 20 hrs at 37° C. and determine the MIC in the presence and absence of inhibitor.

[2] = tested on: K. pneumoniae K66-45 (NDM-1); conditions: compound at 125 μM; K66-45 K. pneumoniae NDM-1
Description: as §1, §2

[3] = tested on: K. pneumoniae A3-81 (VIM-1); conditions: compound at 125 μM; A3-81 K. pneumoniae VIM-1
Description: as §1, §2

E. coli K71-77 (NDM-1) = conditions: compound at 125 μM; K71-77 E. coli NDM-1
Description: as §1, §2

[4] = tested on: P. aeruginosa K34-7 (VIM-2); conditions: compound at 125 μM; K34-7 P. aeruginosa VIM-2
Description: as §1, §2

E. coli 50639799 (VIM-1) = conditions: compound at 125 μM; 50639799 E. coli VIM-1
Description: as §1, §2

## C[C@H](CS)C(=O)N1CCC[C@H]1C(=O)O [Captopril]
[1]
  Meropenem MIC (mg/L) in presence of compound: 32 to 64 mg/L
[2]
  Meropenem MIC (mg/L) in presence of compound: 64 mg/L
[3]
  Meropenem MIC (mg/L) in presence of compound: 64 to 128 mg/L
E. coli K71-77 (NDM-1)
  Meropenem MIC (mg/L) in presence of compound: 2 to 4 mg/L
[4]
  Meropenem MIC (mg/L) in presence of compound: 32 mg/L
E. coli 50639799 (VIM-1)
  Meropenem MIC (mg/L) in presence of compound: 16 mg/L
